Measured values reported in ChEMBL document CHEMBL1201862, “PubChem BioAssay data set” (2004).
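Assay format: 96-well plates, 48-hour exposure. GI50 = concentration required for 50% inhibition of growth.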 Activity calls are given as the source filed them. Rule as the data show it: active = GI50 up to about 1.1 µM and inactive = higher.

What was measured:
Assay in all cases: NCI anticancer screen, dose series, 48 h
HOP-62 = system: HOP-62
NCI-H460 = system: NCI-H460
TK-10 = system: TK-10
SR = system: SR
CCRF-CEM = system: CCRF-CEM
SW-620 = system: SW-620
SF-295 = system: SF-295
786-0 = system: 786-0
SK-OV-3 = system: SK-OV-3
U-251 = system: U-251
PC-3 = system: PC-3
UACC-62 = system: UACC-62
MOLT-4 = system: MOLT-4
SF-268 = system: SF-268
SK-MEL-28 = system: SK-MEL-28
HCT-116 = system: HCT-116
OVCAR-8 = system: OVCAR-8
SN12C = system: SN12C
K562 = system: K562

SMILES	GI50 (HOP-62)	GI50 (NCI-H460)	GI50 (TK-10)	GI50 (SR)	GI50 (CCRF-CEM)	GI50 (SW-620)	GI50 (SF-295)	GI50 (786-0)	GI50 (SK-OV-3)	GI50 (U-251)	GI50 (PC-3)	GI50 (UACC-62)	GI50 (MOLT-4)	GI50 (SF-268)	GI50 (SK-MEL-28)	GI50 (HCT-116)	GI50 (OVCAR-8)	GI50 (SN12C)	GI50 (K562)
O=C(NNC(=O)c1ccccc1SSc1ccccc1C(=O)NNC(=O)c1ccccc1S)c1ccccc1S	25.9 µM (inactive)	10.4 µM (inactive)	51.8 µM (inactive)	5.35 µM (inactive)	1.29 µM (inactive)	12 µM (inactive)	10.6 µM (inactive)	11.4 µM (inactive)	46.5 µM (inactive)	19.5 µM (inactive)	24.6 µM (inactive)	17.5 µM (inactive)	6 µM (inactive)	4.24 µM (inactive)	24.3 µM (inactive)	7.18 µM (inactive)	16.3 µM (inactive)	18.5 µM (inactive)	11.3 µM (inactive)
COC(=O)[C@@H]1c2c(oc3cc(CO)cc(O)c3c2=O)C=C[C@H]1O	17.9 µM (inactive)	18.6 µM (inactive)	2.34 µM (inactive)	5.6 µM (inactive)	1.69 µM (inactive)	3.11 µM (inactive)	18.4 µM (inactive)	2.45 µM (inactive)	20.5 µM (inactive)	10.5 µM (inactive)	7.18 µM (inactive)	12.3 µM (inactive)	4.52 µM (inactive)	6.19 µM (inactive)	4.16 µM (inactive)	2.3 µM (inactive)	5.56 µM (inactive)	9.86 µM (inactive)	3.28 µM (inactive)
C=C1CC(COc2ccc3c(C)c(C)c(=O)oc3c2C)(c2ccccc2)OC1=O (stereo unspecified)	6.22 µM (inactive)	6.01 µM (inactive)	1.45 µM (inactive)	1.46 µM (inactive)	0.333 µM (active)	1.22 µM (inactive)	5.66 µM (inactive)	1.41 µM (inactive)	3.28 µM (inactive)	7.64 µM (inactive)	1.73 µM (inactive)	1.69 µM (inactive)	1.11 µM (active)	2.64 µM (inactive)	2.07 µM (inactive)	1.41 µM (inactive)	1.72 µM (inactive)	3.39 µM (inactive)	0.671 µM (active)
CC1=CC[C@H](C(C)C)C(C(O)[C@@H](C)O[Si](c2ccccc2)(c2ccccc2)C(C)(C)C)C1=O (stereo partly specified)	20.9 µM (inactive)	14.8 µM (inactive)	15.7 µM (inactive)	14.5 µM (inactive)	19.5 µM (inactive)	18.9 µM (inactive)	15 µM (inactive)	15 µM (inactive)	28.5 µM (inactive)	15.8 µM (inactive)	14 µM (inactive)	14.8 µM (inactive)	7.36 µM (inactive)	21.1 µM (inactive)	32.3 µM (inactive)	10.6 µM (inactive)	22.8 µM (inactive)	17.9 µM (inactive)	9.93 µM (inactive)
Clc1ccc(C2NN=C3c4ccccc4OCC32)cc1 (stereo unspecified)	6.71 µM (inactive)	4.3 µM (inactive)	22.8 µM (inactive)	1.86 µM (inactive)	4.29 µM (inactive)	3.64 µM (inactive)	2.11 µM (inactive)	4.65 µM (inactive)	5.82 µM (inactive)	4.09 µM (inactive)	4.11 µM (inactive)	5.07 µM (inactive)	4.43 µM (inactive)	5.36 µM (inactive)	15.3 µM (inactive)	2.81 µM (inactive)	3.94 µM (inactive)	5.73 µM (inactive)	3.39 µM (inactive)
FC(F)(F)c1ccccc1C1SCC2=Nc3ccccc3CN21 (stereo unspecified)	11.1 µM (inactive)	15.7 µM (inactive)	14.4 µM (inactive)	21.2 µM (inactive)	26.5 µM (inactive)	32.4 µM (inactive)	13.1 µM (inactive)	11.9 µM (inactive)	18.6 µM (inactive)	28.4 µM (inactive)	14.1 µM (inactive)	13.2 µM (inactive)	21.8 µM (inactive)	15.1 µM (inactive)	19.3 µM (inactive)	11.1 µM (inactive)	16.9 µM (inactive)	27 µM (inactive)	21.8 µM (inactive)
COc1cc2c(c(O)c1OC)CC1CCC(=O)N1C2c1cccc2ccccc12 (stereo unspecified)	20.8 µM (inactive)	22.9 µM (inactive)	39.4 µM (inactive)	> 100 µM (inactive)	30.8 µM (inactive)	27.7 µM (inactive)	18.6 µM (inactive)	30.3 µM (inactive)	18.9 µM (inactive)	19.8 µM (inactive)	15.6 µM (inactive)	14.2 µM (inactive)	26.1 µM (inactive)	25.1 µM (inactive)	21.9 µM (inactive)	20.4 µM (inactive)	20 µM (inactive)	16.9 µM (inactive)	35.3 µM (inactive)
O=C1C=CC2(O[C@H](C3CCCCC3)[C@@H](C3CCCCC3)O2)C(SC(=O)c2ccccc2)C1 (stereo partly specified)	3.23 µM (inactive)	7.8 µM (inactive)	2.26 µM (inactive)	0.925 µM (active)	1.26 µM (inactive)	1.91 µM (inactive)	7.14 µM (inactive)	1.68 µM (inactive)	12.9 µM (inactive)	1.91 µM (inactive)	2.23 µM (inactive)	2.48 µM (inactive)	1.09 µM (active)	2.62 µM (inactive)	0.347 µM (active)	0.918 µM (active)	1.73 µM (inactive)	1.82 µM (inactive)	1.4 µM (inactive)
N#Cc1c(N)nc2[nH]nc(N)c2c1-c1ccc(Cl)cc1	6.75 µM (inactive)	3.15 µM (inactive)	2.1 µM (inactive)	> 22.6 µM (inactive)	4.95 µM (inactive)	13.8 µM (inactive)	6.03 µM (inactive)	7.94 µM (inactive)	2.56 µM (inactive)	19.3 µM (inactive)	2.65 µM (inactive)	1.42 µM (inactive)	2.54 µM (inactive)	5.11 µM (inactive)	6.95 µM (inactive)	5.52 µM (inactive)	6.75 µM (inactive)	3.32 µM (inactive)	16.9 µM (inactive)
COc1cc(NC=C2C(=O)OC(C)(C)OC2=O)c(OC)c(C)c1OC	> 100 µM (inactive)	> 100 µM (inactive)	> 100 µM (inactive)	> 100 µM (inactive)	> 100 µM (inactive)	> 100 µM (inactive)	> 100 µM (inactive)	> 100 µM (inactive)	> 100 µM (inactive)	> 100 µM (inactive)	> 100 µM (inactive)	> 100 µM (inactive)	> 100 µM (inactive)	> 100 µM (inactive)	> 100 µM (inactive)	> 100 µM (inactive)	> 100 µM (inactive)	> 100 µM (inactive)	> 100 µM (inactive)
OCC12C3C4C5C3C1C5C42 (stereo unspecified)	> 100 µM (inactive)	> 100 µM (inactive)	> 100 µM (inactive)	> 100 µM (inactive)	> 100 µM (inactive)	> 100 µM (inactive)	> 100 µM (inactive)	> 100 µM (inactive)	> 100 µM (inactive)	> 100 µM (inactive)	> 100 µM (inactive)	> 100 µM (inactive)	> 100 µM (inactive)	> 100 µM (inactive)	> 100 µM (inactive)	> 100 µM (inactive)	> 100 µM (inactive)	> 100 µM (inactive)	> 100 µM (inactive)
COc1cc(N(CCC#N)CCC#N)ccc1/C=C1\SC(=S)NC1=O	> 100 µM (inactive)	> 100 µM (inactive)	> 100 µM (inactive)	> 100 µM (inactive)	> 100 µM (inactive)	> 100 µM (inactive)	> 100 µM (inactive)	> 100 µM (inactive)	> 100 µM (inactive)	> 100 µM (inactive)	> 100 µM (inactive)	> 100 µM (inactive)	> 100 µM (inactive)	> 100 µM (inactive)	> 100 µM (inactive)	> 100 µM (inactive)	> 100 µM (inactive)	> 100 µM (inactive)	> 100 µM (inactive)
Cc1c(S(=O)(=O)O)ccc(/N=N/c2c(O)c(C(=O)O)cc3ccccc23)c1Cl	> 100 µM (inactive)	> 100 µM (inactive)	> 100 µM (inactive)	> 50.2 µM (inactive)	> 100 µM (inactive)	> 100 µM (inactive)	> 100 µM (inactive)	> 89.3 µM (inactive)	> 100 µM (inactive)	> 92.5 µM (inactive)	> 100 µM (inactive)	> 100 µM (inactive)	> 100 µM (inactive)	> 100 µM (inactive)	> 100 µM (inactive)	> 100 µM (inactive)	> 100 µM (inactive)	> 100 µM (inactive)	> 100 µM (inactive)
O=C1/C(=C/c2ccccc2)Oc2cc(O)ccc21	> 100 µM (inactive)	> 100 µM (inactive)	> 100 µM (inactive)	> 100 µM (inactive)	> 100 µM (inactive)	> 100 µM (inactive)	> 100 µM (inactive)	> 100 µM (inactive)	> 100 µM (inactive)	> 100 µM (inactive)	> 100 µM (inactive)	> 100 µM (inactive)	> 100 µM (inactive)	> 100 µM (inactive)	> 100 µM (inactive)	> 100 µM (inactive)	> 100 µM (inactive)	> 100 µM (inactive)	> 100 µM (inactive)
